“Also recorded” adds a separate entry of the source. Like-named read-outs stand apart in the source and are kept apart here.
Legend:
[1] = test system: frataxin deficient fibroblasts (Friedreich's ataxia patient, GM03665); format: cell-based
[2] = test system: HepG2 human hepatocarcinoma cells; experiment: Rotenone ATP Assay (Complex I by-pass); format: cell-based; details: for Complex I by-pass activity / restoring ATP production, in words: summary statements also cover the Oxygraph assay
Method: This assay has been adapted from Haefeli R H, Erb M, Gemperli A C, Robay D, Courdier Fruh I, et al. (2011) NQO1-Dependent Redox Cycling of Idebenone: Effects on Cellular Redox Potential and Energy Levels. PLOS ONE 6 (3): e17963. HepG2 human hepatocarcinoma cells were co-incubated with the electron transport chain Complex I toxin rotenone+/−compounds of interest and the corresponding effect on ATP synthesis was measured with a bioluminescent substrate.
In brief, HepG2 cells were plated at 25,000 cells per well in low glucose (1 gram/Liter) DMEM medium+10% fetal calf serum and incubated for 24 hours. The following day, the media was decanted and subsequently replaced with glucose free/serum free DMEM which has been supplemented with 50 micromolar rotenone and compound of interest. Serial dilutions of compound were prepared in 3× dilutions beginning at 25 micromolar. The cells were incubated for 60 minutes in a humidified tissue culture incubator. Following incubation, ATP levels were quantified via bioluminescent assay (Promega […] Glo Assay kit) and readings were captured on a standard microplate reader.
ATP bioluminescence is plotted versus the log of compound of interest and data were used to generate EC50 values. Curve fitting was performed using a sigmoidal dose response curve fit function (GraphPad Prism software).
Robustness of curve fit was assessed as a quality control measure, with an R squared value of at least 0.80 being required for a successful curve fit. Compounds of interest showing an increase in ATP bioluminescence relative to vehicle control were verified in an independent biological replicate of n=3 technical replicates per dose.
This assay is a direct measure of the ability of compounds of interest to restore ATP production under conditions of inhibition of Complex I of the mitochondrial electron transport chain. As the majority of ATP produced via the electron transport chain is thought to derive from Complex I activity, significant impairment in Complex I function has dire biological consequences. Of note, Complex I mutations are thought to drive pathophysiology in multiple mitochondrial diseases, including Leigh syndrome and Leber's Hereditary Optic Neuropathy (LHON), while diminished Complex I activity and the resultant attenuation of ATP production has been shown in neurodegenerative diseases, including Friedreich's Ataxia, Parkinson's Disease and Huntington's Disease.

[3] = test system: GM03665 cells (fibroblasts from a subject with Friedreich's ataxia); experiment: RSL3 Toxicity Assay (RSL3 Assay); format: cell-based, human; details: for EC50: Homo sapiens, Fibroblast
Method: In brief, GM03665 cells (Coriell Institute) were seeded in 96-well plates (Sarstedt) in DMEM cell culture media containing 10% Fetal Bovine serum and 1% Penicillin-Streptomycin (Pen-Strep) antibiotic mix at the amount of 2×10^4/mL (100 μL or 2×10^3 cells per well). Cells were left to rest overnight at 37° C. in a humidified atmosphere with 5% CO2 to allow attachment of the cells to the culture plate. Test compounds were prepared as DMSO stocks (10 mM) and were serially diluted in cell culture media to obtain 2× working solutions. Cell media was discarded and replaced by 50 μL of test compound solutions or cell media with vehicle for control wells. Within 15 minutes, 2× working solution (4 μM) of 1S,3R-RSL3 (CAS #1219810-16-8, Sigma-Aldrich) (diluted from 5 mM DMSO stock in cell culture media) was added. Final reaction volume was 100 μL and final DMSO concentration in reaction was kept below 0.2% (v/v) and equal in all wells. Final RSL3 concentration was 2 μM and test compound final concentrations in reaction were up to 1000 nM. After 24 hours of incubation cell viability was assessed by MTT test. MTT (Sigma-Aldrich) solution 1 mg/mL in 1×PBS (pH=7,4) was prepared 1 hour before the assay and filtered through Filtropur S 0.2 filters (Sarstedt). Cell media with test compounds was discarded and 100 μL of MTT solution was added to cells. The plates were incubated for 2 hours at +37° C. Thereafter, the MTT solution was removed and 100 μL of isopropanol was added to dissolve sediment. Absorption at 570 and 650 nm was measured using Hidex Sense microplate reader.

intact HepG2 cells = experiment: Rotenone Oxygraph Assay (high-resolution respirometry); format: cell-based, human
Method: The Oxygraph-2k (O2k, OROBOROS INSTRUMENTS, Austria) was used for measurements of respiration of intact cells. The respirometry was performed in Dulbecco's Modified Eagle Medium (DMEM) high glucose without supplements. All experiments were performed at 37° C.
HepG2 cells (ATCC collection code HB-8065™) were cultured in 10 cm^2 culture dishes in DMEM high glucose medium supplemented with 10% fetal bovine serum (FBS) and 100 units/mL penicillin and 100 μg/mL streptomycin until approximately 90% confluence was reached. Immediately prior to performing the respirometric assay, the cells were washed with media without FBS, trypsinized and resuspended in DMEM high glucose without FBS.
The final concentration of intact cells in the O2k-chamber was 0.5.10^6/mL. After stabilization of respiration, the Complex I inhibitor, rotenone, at 1 μM final concentration was added to inhibit electron flux via Complex I. Then, compound to be tested was added at 10 μM final concentration, and the change in respiration rate of intact cells was monitored.

lipoxygenase-15 enzyme = lipoxygenase-15 enzyme (Glycine max (Soybean) (Glycine hispida), UniProt P08170); experiment: Lipoxygenase-15 Assay (LO-15 Assay); format: biochemical; details: reduced forms tested
Nrf-2 responsive genes = experiment: Nrf-2 Activation Assay (Nrf-2 Assay); format: cell-based, human; details: 24 hours; for activation of Nrf-2 responsive genes / pathway, in words: FIG. 7, 1 μM
Method: This assay was developed internally and was designed to determine if the novel test compounds disclosed herein active Nrf-2 and thereby promote resolution of inflammation by the mechanism believed to be responsible for the activity of omaveloxolone.
Briefly, GM03665 Eriedreich Ataxia patient fibroblasts were grown in 12 Well Plates (TC Cell+F) (Sarstedt, Nümbrecht Germany), at a density of 12×10^4 cells/per well in DMEM/F12 (Gibco, ThermoFisher Scientific, Waltham, MA, USA) cell media supplemented with 10% FBS and 1% Pen/Strep. Cells were left to rest overnight at 37° C. in a humidified atmosphere with 5% CO2 to allow attachment of the cells to the culture plate. Before continuing assay visual inspection of each well was done by light microscopy to detect any possible bacterial and fungal contamination. […] After incubation, cell media was removed and total RNA from the cells was isolated using E.Z.N.A.® Total RNA Kit I (Omega Bio-tek, Norcross, Georgia, USA) spin columns, and first-strand cDNA synthesis was carried out using a High Capacity cDNA Reverse Transcription Kit (Applied Biosystems™, Foster City, CA) following the manufacturer's instructions. qPCR analysis of gene expression was performed by mixing SYBR® Green Master Mix (Applied Biosystems™) with synthesized cDNA and forward and reverse primers. […] (60 cycles), and 95° C. for 60 seconds, followed by melt curve analysis at 72-95° C., 0.3° C./sec. The relative expression levels for each gene were calculated with the ΔΔCt method and normalized to the expression of REEP5 and SNRPD3 genes.

Compound | protection from BSO induced cell death / ferroptosis, in words [1] | Complex I by-pass activity / restoring ATP production, in words [2] | activity in the RSL3 Assay, in words [3] | Rotenone Oxygraph Assay % Increase (Table 7) (intact HepG2 cells; 1 μM rotenone, 10 μM compound) | lipoxygenase-15 inhibition, in words (lipoxygenase-15 enzyme) | activation of Nrf-2 responsive genes / pathway, in words (Nrf-2 responsive genes) | EC50 ([3]; 2 μM RSL3, 24 hours, MTT, mean of at least three measurements, unit from Table 7, read-out: Mean EC50, RSL3 Assay (Table 3)) [nM] | EC50 ([3]; 2 μM RSL3, 24 hours, MTT, read-out: RSL3 Assay EC50, nM (Table 7)) [nM] | Nrf-2 Assay (Table 7) (Nrf-2 responsive genes; 1 μM compound, qPCR of Nrf-2 responsive genes) | Rotenone ATP Assay EC50, nM (Table 7) ([2]; HepG2, 50 micromolar rotenone, 60 minutes) | RSL3 Assay EC50, nM (Table 7) ([3]; 2 μM RSL3, 24 hours, MTT) | Mean EC50, RSL3 Assay (Table 3) ([3]; 2 μM RSL3, 24 hours, MTT, mean of at least three measurements, unit from Table 7) | activity in the Rotenone Oxygraph Assay, in words (intact HepG2 cells) | Percent increase in ATP (Table 4, Rotenone Oxygraph Assay) (intact HepG2 cells; 1 μM rotenone, 10 μM compound, change in respiration rate of intact cells)
CC(C)=CCC/C(C)=C/CC/C(C)=C/CC[C@@](C)(O)CCC1=C(C)C(=O)C(C)=C(C)C1=O (stereo in doubt) [Vatiquinone, reference compound] | ability to circumvent BSO induced cell death | not | active | – | – | – | – | – | – | – | – | – | – | –
Cc1c(C)c2c(c(C)c1O)CC[C@@](C)(CCC=C(F)F)O2 [Compound 67, (R)-2-(4,4-difluorobut-3-en-1-yl)-2,5,7,8-tetramethylchroman-6-ol] | possess both activities | possess both activities | – | – | – | – | – | – | – | – | – | – | – | –
CC1=C(C)C(=O)C(CC[C@](C)(O)CC/C=C(\C)CC/C=C(\C)CCC=C2COC2)=C(C)C1=O [Compound E, 2-((R,6E,10E)-3-hydroxy-3,7,11-trimethyl-14-(oxetan-3-ylidene)tetradeca-6,10-dien-1-yl)-3,5,6-trimethylcyclohexa-2,5-diene-1,4-dione] | possess both activities; also recorded: able to prevent ferroptotic cell death; also recorded: active | possess both activities | active; also recorded: able to prevent ferroptotic cell death | 37.9 +/− 10.7% | outside of the range of the assay | do not activate | – | – | – | – | – | – | – | –
CC1=C(C)C(=O)C(CC[C@](C)(O)CC/C=C(\C)CCC=C(F)F)=C(C)C1=O [Compound H, (R,E)-2-(11,11-difluoro-3-hydroxy-3,7-dimethylundeca-6,10-dien-1-yl)-3,5,6-trimethylcyclohexa-2,5-diene-1,4-dione] | able to prevent ferroptotic cell death; also recorded: active | – | active; also recorded: able to prevent ferroptotic cell death | 54.3 +/− 13% | effective inhibitors | do not activate | – | – | – | – | – | – | – | –
CC1=C(C)C(=O)C(CC[C@@](C)(O)CC/C=C(\C)CCC=C(F)F)=C(C)C1=O [Compound L, (S,E)-2-(11,11-difluoro-3-hydroxy-3,7-dimethylundeca-6,10-dien-1-yl)-3,5,6-trimethylcyclohexa-2,5-diene-1,4-dione] | possess both activities; also recorded: able to prevent ferroptotic cell death; also recorded: active | possess both activities | active; also recorded: able to prevent ferroptotic cell death | 58.6 +/− 15.5% | effective inhibitors | do not activate | – | – | – | – | – | – | – | –
CC1=C(C)C(=O)C(CC[C@@](C)(O)COCCC[Si](C)(C)C)=C(C)C1=O [Compound M, (R)-2-(3-hydroxy-3-methyl-4-(3-(trimethylsilyl)propoxy)butyl)-3,5,6-trimethylcyclohexa-2,5-diene-1,4-dione] | able to prevent ferroptotic cell death; also recorded: active | active | active; also recorded: able to prevent ferroptotic cell death | 56.6 +/− 11.3% | best result; also recorded: effective inhibitors | do not activate | 41.2 | 41.2 | Inactive | – | – | – | – | –
COC1=C(OC)C(=O)C(CCCCCCCCCCO)=C(C)C1=O [Idebenone, reference compound] | very weakly active/borderline inactive | ability to restore ATP production when Complex I is inhibited | – | 70.2 +/− 15% | – | – | – | – | – | – | – | – | – | –
CC1(C)CC[C@]2(NC(=O)C(C)(F)F)CC[C@]3(C)[C@H](C(=O)C=C4[C@@]5(C)C=C(C#N)C(=O)C(C)(C)[C@@H]5CC[C@]43C)[C@@H]2C1 [Omaveloxolone, reference compound] | ability to circumvent BSO induced cell death; also recorded: displayed anti-ferroptotic activity | not | completely inactive | Inactive | – | positive and does | – | – | – | Inactive | Inactive | Inactive | inactive | Inactive

From patent US20240400529A1, “COMPOSITIONS AND METHODS FOR THE PREVENTION AND/OR TREATMENT OF MITOCHONDRIAL DISEASE, INCLUDING FRIEDREICH'S ATAXIA” (Stealth BioTherapeutics Inc., priority 2019, published 2024)
